The values below come from patent US20070178537A1, “Assays for detection of bioactive compounds that interact with heat shock protein 90” (Sloan-Kettering Institute for Cancer Research, priority 2003, published 2007).

Several values for one entry are separate records, joined by “and”; a condition that tells them apart may be missing. Equal entries are not always repeated. Where two headings read alike, the source gives them in different places.

In one experiment the test system is Her2 in SKBr3 cells. Put plainly: Her2-blot (whole-cell immunoassay of Her2 degradation). It counts as cell-based, human. As for the experimental part: The human cancer cell lines SKBr3 and A431 were obtained from the American Type Culture Collection (Manassas, Va.) and maintained in 1:1 mixture of DME:F12 supplemented with 2 mM glutamine, 50 units/mL penicillin, 50 units/mL streptomycin and 5% heat inactivated fetal bovine serum (FBS) (Gemini Bioproducts) and incubated at 37° C. in 5% CO2. Stock culture was grown in T-175 flasks containing 30 mL of DME (HG, F-12, non-essential amino acids, and penicillin and streptomycin), with glutamine, and 10% FBS. Cells were dissociated with 0.05% trypsin and 0.02% EDTA in phosphate buffer saline (PBS) without calcium and magnesium. Experimental cultures of SKBr3 were plated in black, clear-bottom microtiter plates (Corning # 3603) (3,000 cells per well) in growth medium ([…]), and allowed to attach for at least 48 h at 37° C. and 5% CO2. Some wells were left without cells to serve as the blank. Growth medium (100 μL) with drug or vehicle (DMSO) was carefully added to the wells and the microtiter plates were placed at 37° C. and 5% CO2. […] Following incubation (6 h or 24 h), wells were washed twice with ice-cold tris buffer saline (TBS) containing 0.1% Tween20 (TBST) (200 μL). A house vacuum source attached to an 8-channel aspirator was used to remove the liquid from the microplates. Further, methanol (100 μL at −20° C.) was added to each well and the plate was left at 4° C. for 10 min. Methanol was removed by washing with TBST (2×200 μL). The plate was further incubated at RT for 1 h with SuperBlock® (Pierce # 37535) (200 μL) and overnight at 4° C. with the anti-Her-2 antibody (Santa Cruz Biotechnology # SC-284) ([…], 1:200 in SuperBlock®). Each well was washed with TBST (2×200 μL) and incubated at RT for 2 h with an anti-rabbit HRP-linked antibody (Sigma # A0545) (100 μL, 1:1000 in SuperBlock®). […] The plate was read 5 min later in an Analyst AD plate reader (Molecular Devices). […] Readings from wells containing only control IgG and the corresponding HRP-linked secondary antibody were set as background and deducted from all measured values. […]

The target of a further experiment is Hsp90 beta (Homo sapiens, UniProt P08238). Put plainly: Fluorescence polarization competitive displacement of GM-BODIPY, Hsp90 beta. It counts as binding. Conditions: 30 nM Hsp90 beta, 5 nM GM BODIPY, 7 h. From the text:
Specific ligand binding was plotted against the log10 inhibitor concentration and EC50 values calculated using a non linear least square curve fitting program in Prism 4.0.
In general terms: Fluorescence polarisation rises when a labelled molecule tumbles more slowly, as on binding a larger partner.

Another experiment deals with T1, Hsp90 alpha (Homo sapiens, UniProt P07900).
T1 construct: purchased Stressgen SPP776
Put plainly: Fluorescence polarization competitive displacement of GM-BODIPY from Hsp90. Particulars: ratio of EC50 values. The format is binding.

Experiment [1] concerns tumor hsp90 versus normal tissue Hsp90. As to the kind of experiment: Fluorescence polarization assay with tumor cell and normal tissue lysates. Particulars: FIG. 11 and FIG. 22C. It counts as binding. As for the experimental part:
For use in the assay of the invention, cell lysates are made using the following protocol • collect cells • adherent cells: trypsinize (or scrape), harvest cells in 15 ml conical tubes and centrifuge at 1,600 RPM for 5 minutes at 2 to 8 C • (use confluent T-175 flask to obtain 0.5 ml of lysate) • floating cells: pellet cells by centrifugation 1600 rpm for 5 minutes at 2 to 8 C • wash 2× with 5 ml of PBS buffer • resuspend the pellet in 1 ml of PBS buffer and transfer cells to an eppendorf tube • centrifuge, aspirate supernatant, and freeze the pellet O/N at −70° C. • resuspend in lysis buffer B (Felts buffer) (1×10^6 cells per 100 l of buffer B) • incubate on the rotor for 2 hours at 2 to 8° C. • centrifuge the samples at 13,200 RPM for 30 min at 2 to 8° C. • transfer the supernatant to a fresh tube • quantitate protein concentration with the Pierce BCA assay • add 0.5 uL of 1M DTT/mL lysate • store samples at −70 C; before conducting an experiment thaw samples on ice and keep samples on ice throughout the course of experiment.
Cellular lysates were prepared in this manner from normal brain tissue, CML cell line K562 and breast cancer cell line SKBr3. For constructing a saturation curve, 5 nM GM BODIPY was added to the lysate, and the fluorescence polarization assay of the invention was performed. […]
The assay is stable and results in reproducible data (6-24 h readings presented). […]

Where [2] appears, read: Homo sapiens, SK-BR-3, Her2-blot, read-out: IC50 for Her2 degradation.

Chain of Hsp90 beta (P08238 whole entry): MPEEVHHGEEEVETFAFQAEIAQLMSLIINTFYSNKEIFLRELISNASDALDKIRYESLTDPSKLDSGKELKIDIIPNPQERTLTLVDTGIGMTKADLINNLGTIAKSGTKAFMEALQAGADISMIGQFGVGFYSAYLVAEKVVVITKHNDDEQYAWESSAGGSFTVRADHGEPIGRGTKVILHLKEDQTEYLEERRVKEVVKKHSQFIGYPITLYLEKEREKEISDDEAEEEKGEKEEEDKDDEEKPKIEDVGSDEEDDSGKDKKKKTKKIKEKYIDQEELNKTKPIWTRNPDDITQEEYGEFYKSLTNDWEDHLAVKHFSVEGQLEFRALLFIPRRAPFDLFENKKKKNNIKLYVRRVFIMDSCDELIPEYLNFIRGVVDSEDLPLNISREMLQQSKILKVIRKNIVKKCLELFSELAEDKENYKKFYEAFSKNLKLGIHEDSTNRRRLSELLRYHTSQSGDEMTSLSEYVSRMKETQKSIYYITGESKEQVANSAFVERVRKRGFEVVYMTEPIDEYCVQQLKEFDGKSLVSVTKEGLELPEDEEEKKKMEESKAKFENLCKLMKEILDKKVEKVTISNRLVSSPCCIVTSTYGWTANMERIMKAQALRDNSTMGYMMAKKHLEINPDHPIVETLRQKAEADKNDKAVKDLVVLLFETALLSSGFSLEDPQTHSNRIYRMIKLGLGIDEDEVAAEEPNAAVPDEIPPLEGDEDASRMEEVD
Excerpt for Hsp90 alpha: The method comprises the steps of: • (a) combining the candidate molecule with Hsp90 in the presence of a fluorescently-labeled molecule known to bind to Hsp90; • (b) exciting the fluorescent label using polarized light to produce a fluorescent emission; • (c) observing the degree of polarization of the fluorescent emission; and • (d) comparing the degree of polarization determined in step (c) to a standard value determined for the fluorescently labeled molecule when it is bound to Hsp90. When the fluorescently-labeled molecule is bound to the Hsp90, the emission is substantially polarized. On the other hand, when the fluorescently-labeled molecule has been wholly or partially displaced by candidate molecule, the extent to which the emission is polarized decreases as a result of the rotational freedom of the unbound fluorescently labeled species.
Maximum concentration of used DMSO was 0.25% (v/v). The plate was left on a shaker at 4° C. for 5 h and the FP values in mP were recorded.
Ad-But was again used as a control.
A mixture of 30 nM Hsp90 alpha, 30 nM Hsp90 beta or 200 nM Grp94-His, respectively with 5 nM GM BODIPY was added and the plate incubated at 4EC for 7 h. Specific ligand binding was plotted against the log10 inhibitor concentration and EC50 values calculated using a non linear least square curve fitting program in Prism 4.0.

For the compound `COC1=C2C[C@@H](C)C[C@H](OC)[C@H](O)[C@@H](C)/C=C(\C)[C@H](OC(N)=O)[C@@H](OC)/C=C\C=C(/C)C(=O)NC(=CC1=O)C2=O` [GM, geldanamycin], the IC50 with Her2 in SKBr3 cells (setting [2]) was found to be 0.017 µM. Take `CCNC(=O)[C@H]1O[C@@H](n2cnc3c(N)ncnc32)[C@H](O)[C@@H]1O` [NECA]: on Hsp90 beta, the “Inhibition of cytosolic Hsp90 b (FIG. 13A)” value was “does not inhibit”.

As to `CCCCn1c(Cc2cc(OC)c(OC)c(OC)c2)nc2c(N)ncnc21` [PU3], at Hsp90 alpha, the “times weaker Hsp90 inhibitor than 17AAG” value stood at 30. For the compound `C#CCCCn1c(Cc2cc(OC)c(OC)c(OC)c2Cl)nc2c(N)nc(F)nc21` [PU24FCl], the IC50 with Her2 in SKBr3 cells (several plates at different time periods, read-out: IC50s in separate readings of the Her2-blot) is 4 µM and 4.18 µM and 4.54 µM. The “Binding affinity for tumor versus normal tissue Hsp90” value in experiment [1] is “difference in binding affinity”. For the compound `C[C@@H]1C[C@H]2O[C@@H]2/C=C\C=C\C(=O)Cc2c(Cl)c(O)cc(O)c2C(=O)O1` [RD, radicicol], in the experiment with Her2 in SKBr3 cells (setting [2]), the IC50 is 0.028 µM.
